Where two headings read alike, the source gives them in different places.
Assays:
HCV replicon 1A = assay: Cell-based HCV Replicon Assay A, replicon 1A
How it was run: (§1)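 Readout: replicon RNA by real-time RT-PCR, normalised to co-amplified cyclophilin and quantified against replicon total-RNA standard curves. Cells (2000/well) treated 3 days in medium with 5% FBS and 0.5% DMSO, compound in 10 serial dilutions from starting concentrations of 333.3 nM to 1.667 nM.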

HCV replicon 1AY93H = assay: Cell-based HCV Replicon Assay A, replicon 1AY93H
How it was run: as §1

HCV replicon 2B = assay: Cell-based HCV Replicon Assay A, replicon 2B
How it was run: as §1

HCV replicon 1AQ30D = assay: Cell-based HCV Replicon Assay B, replicon 1AQ30D
Description: (§2) In an alternate assay (“Replicon Assay B”), 1000 cells were seeded per well in a 384-well collagen coated black plate from Greiner bio-one (Cat #781946) in 5% FBS. Inhibitors of this invention were added at 24 h post-seeding, and the plates were incubated for 3 days. Cells were subsequently lysed with Qiagen lysis buffer (Cat #1062731) to extract the RNA. HCV replicon RNA level was measured by real-time PCR using the RNA-to-CT kit from Applied Biosystem (Cat #4392656) and genotype-specific primers and probes. The amplicon was located within NS5B. The sequence of the PCR primers are as follows: 5B.2F, ATGGACAGGCGCCCTGA (SEQ. ID NO. 1); 5B.2R, […] (SEQ. ID NO. 2); the probe sequence was FAM-labeled CACGCCATGCGCTGCGG (SEQ. ID NO. 3). To detect genotype 1A the primer 1A F, TGCGGAACCGGTGAGTACA and 1A R, […] were used; the probe sequence was FAM-[…].
(§3) The real-time RT-PCR reactions were run on ABI PRISM 7900HT or Viia7 Sequence Detection System using the following program: 48° C. for 30 minutes, 95° C. for 10 minutes, 40 cycles of 95° C. for 15 sec, 60° C. for 1 minutes. The 50% effective concentration (EC50) was the drug concentration necessary to achieve an increase in the cycle threshold (CT) of 1 over the projected baseline CT.
(§4) Data was obtained for various compounds of the present invention using the methods described in the Example above, and is presented in the table immediately below. Data for replicons 1A, 1AY93H and 2B were obtained using Replicon Assay A and data for replicons 1AQ30D and 1B were obtained using Replicon Assay B.

HCV replicon 1B = assay: Cell-based HCV Replicon Assay B, replicon 1B
Description: as §2, §3, §4

[1] = Hepatitis C virus, read-out: 1A Y93H IC50 (nM), replicon 1AY93H
[2] = Hepatitis C virus, read-out: 2B IC50 (nM), replicon 2B
[3] = Hepatitis C virus, read-out: 1A Q30D IC50 (nM), replicon 1AQ30D
[4] = read-out: 1A Y93H IC50, replicon 1AY93H
[5] = read-out: 1A Q30D IC50, replicon 1AQ30D

| SMILES | IC50 (HCV replicon 1A; Hepatitis C virus) [nM] | IC50 (HCV replicon 1AY93H; [1]) [nM] | IC50 (HCV replicon 2B; [2]) [nM] | IC50 (HCV replicon 1AQ30D; [3]) [nM] | IC50 (HCV replicon 1B; Hepatitis C virus) [nM] | IC50 (HCV replicon 1AY93H; [4]) [nM] | IC50 (HCV replicon 2B; read-out: 2B IC50, replicon 2B) [nM] | IC50 (HCV replicon 1B) [nM] | IC50 (HCV replicon 1AQ30D; [5]) [nM] | IC50 (HCV replicon 1A) [nM] | IC50 (HCV replicon 1AQ30D; replicon 1AQ30D, read-out: 1A Q30D IC50) [nM] |
| --- | --- | --- | --- | --- | --- | --- | --- | --- | --- | --- | --- |
| COC(=O)N[C@H](C(=O)N1CCC[C@H]1c1ncc(-c2cc(F)c3c(c2)OC(c2cnc(-c4ccccn4)s2)n2c-3cc3cc(-c4cnc([C@@H]5CCCN5C(=O)[C@@H](NC(=O)OC)C(C)C)[nH]4)ccc32)[nH]1)C(C)C (mixture of isomers) [Compound 407] | 0.0027 | 0.143 | 0.192 | 0.482 | 0.004 | – | – | – | – | – | – |
| COC(=O)N[C@H](C(=O)N1CCC[C@H]1c1ncc(-c2cc(F)c3c(c2)OC(c2cnc(C)s2)n2c-3cc3cc(-c4cnc([C@@H]5CCCN5C(=O)[C@@H](NC(=O)OC)C(C)C)[nH]4)ccc32)[nH]1)C(C)C (mixture of isomers) [Compound 416] | 0.0022 | 0.085 | 0.119 | 1.77 | 0.003 | – | – | – | – | – | – |
| COC(=O)N[C@H](C(=O)N1CCC[C@H]1c1ncc(-c2cc(F)c3c(c2)OC(c2cnc(C(C)(C)C)s2)n2c-3cc3cc(-c4cnc([C@@H]5CCCN5C(=O)[C@@H](NC(=O)OC)C(C)C)[nH]4)ccc32)[nH]1)C(C)C (mixture of isomers) [Compound 418] | 0.0023 | 0.0083 | 0.095 | 0.255 | 0.003 | – | – | – | – | – | – |
| COC(=O)N[C@H](C(=O)N1CCC[C@H]1c1ncc(-c2cc(F)c3c(c2)OC(c2cnc(-c4cccnc4)s2)n2c-3cc3cc(-c4cnc([C@@H]5CCCN5C(=O)[C@@H](NC(=O)OC)C(C)C)[nH]4)ccc32)[nH]1)C(C)C (mixture of isomers) [Compound 422] | 0.021 | – | 35.2 | 1.67 | 0.015 | – | – | – | – | – | – |
| COC(=O)N[C@H](C(=O)N1CCC[C@H]1c1ncc(-c2cc(F)c3c(c2)OC(c2cnc(C4(C)CCOCC4)s2)n2c-3cc3cc(-c4cnc([C@@H]5CCCN5C(=O)[C@@H](NC(=O)OC)C(C)C)[nH]4)ccc32)[nH]1)C(C)C (mixture of isomers) [Compound 456] | – | 0.021 | 0.316 | 0.559 | 0.0027 | – | – | – | – | – | – |
| COCc1ncc(C2Oc3cc(-c4cnc([C@@H]5CCCN5C(=O)[C@@H](NC(=O)OC)C(C)C)[nH]4)cc(F)c3-c3cc4cc(-c5cnc([C@@H]6CCCN6C(=O)[C@@H](NC(=O)OC)C(C)C)[nH]5)ccc4n32)s1 (single isomer, unassigned) [Compound 18] | – | – | – | 0.072 | – | 0.0069 | 0.016 | 0.001 | – | – | – |
| COC(=O)N[C@H](C(=O)N1CCC[C@H]1c1ncc(-c2cc(F)c3c(c2)OC(c2cnc(C4CC4)s2)n2c-3c(F)c3cc(-c4cnc([C@@H]5CCCN5C(=O)[C@@H](NC(=O)OC)C(C)C)[nH]4)ccc32)[nH]1)C(C)C (single isomer, unassigned) [Compound 21] | – | – | – | 0.494 | 0.004 | 0.0177 | 0.012 | – | – | – | – |
| COC(=O)N[C@H](C(=O)N1CCC[C@H]1c1ncc(-c2cc(F)c3c(c2)OC(c2ncc(-c4ccc(C#N)cc4)s2)n2c-3cc3cc(-c4cnc([C@@H]5CCCN5C(=O)[C@@H](NC(=O)OC)C(C)C)[nH]4)ccc32)[nH]1)C(C)C (single isomer, unassigned) [Compound 44] | – | – | – | – | – | 0.103 | 0.054 | 0.002 | 0.778 | – | – |
| COC(=O)N[C@H](C(=O)N1CCC[C@H]1c1ncc(-c2cc(F)c3c(c2)OC(c2cnc(Oc4ccc(F)cc4)s2)n2c-3cc3cc(-c4cnc([C@@H]5CCCN5C(=O)[C@@H](NC(=O)OC)C(C)C)[nH]4)ccc32)[nH]1)C(C)C (single isomer, unassigned) [Compound 49] | 0.001 | – | – | – | 0.002 | – | 0.002 | – | 0.029 | – | – |
| COC(=O)N[C@H](C(=O)N1CCC[C@H]1c1ncc(-c2cc(F)c3c(c2)OC(c2cnc(Oc4ccc(F)cc4)s2)n2c-3cc3cc(-c4cnc([C@@H]5CCCN5C(=O)[C@@H](NC(=O)OC)C(C)C)[nH]4)ccc32)[nH]1)C(C)C (single isomer, unassigned) [Compound 50] | – | – | – | – | – | 0.119 | 0.158 | 0.001 | 1.22 | – | – |
| COC(=O)N[C@H](C(=O)N1CCC[C@H]1c1ncc(-c2cc(F)c3c(c2)OC(c2cnc(C(C)C)s2)n2c-3cc3cc(-c4cnc([C@@H]5CCCN5C(=O)[C@@H](NC(=O)OC)C(C)C)[nH]4)ccc32)[nH]1)C(C)C (single isomer, unassigned) [Compound 86] | – | 0.0063 | – | 0.187 | 0.002 | – | 0.028 | – | – | – | – |
| COC(=O)N[C@H](C(=O)N1CCC[C@H]1c1ncc(-c2cc(F)c3c(c2)OC(c2nc4c(s2)CCCC4)n2c-3cc3cc(-c4cnc([C@@H]5CCCN5C(=O)[C@@H](NC(=O)OC)C(C)C)[nH]4)ccc32)[nH]1)C(C)C (single isomer, unassigned) [Compound 88] | – | – | – | – | – | – | – | – | 0.415 | 0.0028 | – |
| CCCc1ncc(C2Oc3cc(-c4cnc([C@@H]5CCCN5C(=O)[C@@H](NC(=O)OC)C(C)C)[nH]4)cc(F)c3-c3cc4cc(-c5cnc([C@@H]6C[C@H]7C[C@H]7N6C(=O)C(NC(=O)OC)C6CCOC(C)(C)C6)[nH]5)ccc4n32)s1 (single isomer, unassigned) [Compound 105] | – | – | – | – | – | 0.0029 | – | 0.004 | 0.017 | 0.0022 | – |
| COC(=O)NC(C(=O)N1CCC[C@H]1c1ncc(-c2ccc3c(c2)cc2n3C(c3cnc(C4CCC4)s3)Oc3cc(-c4cnc([C@@H]5CCCN5C(=O)[C@@H](NC(=O)OC)C(C)C)[nH]4)cc(C)c3-2)[nH]1)C1C[C@@H](C)O[C@H](C)C1 (single isomer, unassigned) [Compound 220] | 0.004 | 0.01 | – | 0.046 | 0.005 | – | – | – | – | – | – |
| COC(=O)NC(C(=O)N1CCC[C@H]1c1ncc(-c2ccc3c(c2)cc2n3C(c3cnc(C4CC4)s3)Oc3cc(-c4cnc([C@@H]5CCCN5C(=O)[C@@H](NC(=O)OC)C(C)C)[nH]4)cc(F)c3-2)[nH]1)C1C[C@@H](C)O[C@H](C)C1 (single isomer, unassigned) [Compound 305] | – | – | – | – | – | 0.0031 | – | 0.004 | 0.015 | 0.003 | – |
| COC(=O)N[C@H](C(=O)N1CCC[C@H]1c1ncc(-c2cc(F)c3c(c2)OC(c2csc(C4CC4)n2)n2c-3cc3cc(-c4cnc([C@@H]5CCCN5C(=O)[C@@H](NC(=O)OC)C(C)C)[nH]4)ccc32)[nH]1)C(C)C (single isomer, unassigned) [Compound 433] | – | – | – | 1.6 | – | 0.06 | 0.3 | 0.001 | – | – | – |
| COC(=O)N[C@H](C(=O)N1CCC[C@H]1c1ncc(-c2cc(F)c3c(c2)OC(c2sc(C(C)C)nc2C)n2c-3cc3cc(-c4cnc([C@@H]5CCCN5C(=O)[C@@H](NC(=O)OC)C(C)C)[nH]4)ccc32)[nH]1)C(C)C (single isomer, unassigned) [Compound 515] | 0.0013 | 4.45 | 1.84 | – | 0.0029 | – | – | – | – | – | – |
| COC(=O)N[C@H](C(=O)N1CCC[C@H]1c1ncc(-c2cc(F)c3c(c2)OC(c2cnc(C4CCOCC4)s2)n2c-3cc3cc(-c4cnc([C@@H]5CCCN5C(=O)[C@@H](NC(=O)OC)C(C)C)[nH]4)ccc32)[nH]1)C(C)C (single isomer, unassigned) [Compound 532] | – | – | – | – | – | 1.76 | 1.18 | 0.0036 | – | 0.0013 | – |
| CCCc1ncc(C2Oc3cc(-c4cnc([C@@H]5CCCN5C(=O)[C@@H](NC(=O)OC)C(C)C)[nH]4)cc(F)c3-c3cc4cc(-c5cnc([C@@H]6CCCN6C(=O)[C@@H](NC(=O)OC)C(C)C)[nH]5)ccc4n32)s1 (stereo partly shown) [Compound 16] | – | – | – | – | – | 0.083 | 0.284 | 0.001 | – | 0.0017 | – |
| COC(=O)N[C@H](C(=O)N1CCC[C@H]1c1nc(-c2cc(F)c3c(c2)OC(c2cnc(C4CCCCC4)s2)n2c-3cc3cc(-c4cnc([C@@H]5CCCN5C(=O)[C@@H](NC(=O)OC)C(C)C)[nH]4)ccc32)c[nH]1)C(C)C (stereo partly shown) [Compound 415] | 0.0016 | 2.88 | 1.43 | – | 0.002 | – | – | – | – | – | – |
| COC(=O)N[C@H](C(=O)N1CCC[C@H]1c1ncc(-c2cc(F)c3c(c2)OC(c2cnc(C4CC4)s2)n2c-3cc3cc(-c4cnc([C@@H]5CC6(C)CC6N5C(=O)[C@@H](NC(=O)OC)C(C)C)[nH]4)ccc32)[nH]1)C(C)C (stereo partly shown) [Compound 517] | 0.0017 | 0.392 | 0.874 | – | 0.0033 | – | – | – | – | – | – |
| COC(=O)NC(C(=O)N1C(c2ncc(-c3cc(F)c4c(c3)OC(c3cnc(C5CC5)s3)n3c-4cc4cc(-c5cnc(C6CC7(C)CC7N6C(=O)C(NC(=O)OC)C(C)C)[nH]5)ccc43)[nH]2)CC2(C)CC12)C(C)C (stereo not shown) [Compound 533] | – | – | – | – | – | – | – | 0.0196 | – | 0.0262 | 2.52 |

— patent US9555038B2, “Heterocycle-substituted tetracyclic compounds and methods of use thereof for the treatment of viral diseases” (Merck Sharp & Dohme Corp., priority 2013, dated 2017)
